Reference: ChEMBL document CHEMBL1201862, “PubChem BioAssay data set” (2004)
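Assay format: 96-well plates, 48-hour exposure. GI50 is the concentration that inhibits growth by half.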 Activity calls are given as the source filed them. Cut-off read from the data, not from the text of the source: active = GI50 up to about 1.1 µM and inactive = higher.

Experiments:
Assay in all cases: NCI-60 cell line screen, 48 h
[1] = tested on: DU-145
[2] = tested on: Hs-578T
[3] = tested on: LOX IMVI
[4] = tested on: MDA-MB-231
[5] = tested on: MDA-MB-435
[6] = tested on: Malme-3M
[7] = tested on: NCI-H522
[8] = tested on: NCI/ADR-RES
[9] = tested on: OVCAR-4
[10] = tested on: OVCAR-5
[11] = tested on: RXF 393
[12] = tested on: SF-268
[13] = tested on: SF-295
[14] = tested on: SK-MEL-28
[15] = tested on: SK-MEL-2
[16] = tested on: SK-OV-3
[17] = tested on: SN12C
[18] = tested on: T47D
[19] = tested on: TK-10
[20] = tested on: RPMI-8226

Measured: GI50

COc1ccc(Oc2nc(C#CC(C)(C)O)nc(Oc3ccc(OC)cc3)n2)cc1
inactive: [1] 2.62 µM | [2] 16.4 µM | [3] 1.39 µM | [4] 2.88 µM | [5] 4.44 µM | [6] 16.2 µM | [7] 3.2 µM | [8] 18.9 µM | [9] 1.79 µM | [10] 4.72 µM | [11] 1.39 µM | [12] 9.08 µM | [13] 16.7 µM | [14] 4.9 µM | [15] 6.73 µM | [16] 19.2 µM | [17] 13.9 µM | [18] 4.53 µM | [19] 12.6 µM

Oc1cccc2c(Cl)ccnc12
inactive: [1] 5.51 µM | [2] 7.93 µM | [4] 1.13 µM | [5] 2.67 µM | [6] 6.97 µM | [8] 2.3 µM | [9] 1.7 µM | [10] 5.22 µM | [14] 7.69 µM | [16] 32.9 µM | [17] 1.2 µM | [19] 44.3 µM
active: [3] 0.384 µM | [7] 0.741 µM | [20] 0.499 µM | [11] 0.83 µM | [12] 0.522 µM | [13] 0.889 µM | [18] 0.397 µM

C/C(=C/C(=O)N(C)c1ccccc1Cl)O[Si](C(C)C)(C(C)C)C(C)C
inactive: [1] 32.1 µM | [3] 18.7 µM | [4] 22.4 µM | [5] 32.1 µM | [6] 23.9 µM | [7] 15.4 µM | [8] 19.9 µM | [9] 61.2 µM | [10] 18.2 µM | [20] 24.8 µM | [11] 17.3 µM | [12] 21.8 µM | [13] 21.8 µM | [14] 32.8 µM | [16] 34.2 µM | [17] 17 µM | [18] 31.3 µM | [19] 33.5 µM

O=c1c(-c2ccccc2)c(SCCCN2CCN(c3cccc(Cl)c3)CC2)n(-c2ccccc2)c(=S)n1-c1ccccc1
inactive: [1] > 100 µM | [2] > 100 µM | [3] > 100 µM | [4] > 100 µM | [5] 16.8 µM | [6] > 100 µM | [7] > 100 µM | [8] > 100 µM | [9] 23.3 µM | [10] > 100 µM | [20] > 100 µM | [11] > 100 µM | [13] > 100 µM | [14] > 100 µM | [15] > 100 µM | [16] > 100 µM | [19] > 100 µM

CCOC(=O)/C=C(\N=P(c1ccccc1)(c1ccccc1)c1ccccc1)C(F)(F)C(F)(F)C(F)(F)C(F)(F)C(F)(F)F
inactive: [1] > 100 µM | [2] > 100 µM | [3] > 100 µM | [4] > 100 µM | [5] > 100 µM | [6] > 100 µM | [8] > 100 µM | [9] > 100 µM | [10] > 100 µM | [20] > 100 µM | [11] > 100 µM | [12] > 100 µM | [13] > 100 µM | [14] > 100 µM | [15] > 100 µM | [16] > 100 µM | [17] > 100 µM | [18] > 100 µM | [19] > 100 µM

CCP(=O)(CC)C(Cl)(Cl)C(=O)NC
inactive: [1] > 100 µM | [2] > 100 µM | [3] > 100 µM | [4] > 100 µM | [5] > 100 µM | [7] > 100 µM | [8] > 100 µM | [9] > 100 µM | [10] > 100 µM | [20] > 100 µM | [13] > 100 µM | [14] > 100 µM | [15] > 100 µM | [16] > 100 µM | [17] > 100 µM | [18] > 100 µM | [19] > 100 µM

COC(=O)c1cc(CNCCc2c[nH]c3ccccc23)on1
inactive: [1] > 100 µM | [2] > 100 µM | [3] > 100 µM | [6] > 100 µM | [7] 29.6 µM | [8] > 100 µM | [9] > 33.8 µM | [10] > 100 µM | [20] > 100 µM | [11] > 66.8 µM | [12] > 100 µM | [13] > 91.8 µM | [14] > 100 µM | [15] > 100 µM | [16] > 100 µM | [17] > 100 µM | [18] > 100 µM | [19] > 100 µM

O=c1c(C(c2ccc3ccccc3c2)c2c(O)oc3cc(O)ccc3c2=O)c(O)oc2cc(O)ccc12
inactive: [1] > 100 µM | [2] 21.3 µM | [3] 32.7 µM | [4] > 100 µM | [5] 46 µM | [7] 50.8 µM | [8] > 100 µM | [10] > 100 µM | [20] 27.5 µM | [11] 88.5 µM | [12] 15.9 µM | [13] > 100 µM | [14] > 100 µM | [15] > 100 µM | [16] > 100 µM | [17] > 100 µM | [18] > 100 µM | [19] > 100 µM

CC(C)c1cc2c(c(O)c1O)[C@@]1(C)CCCC(C)(C)C1=C(O)C2
inactive: [1] 3.03 µM | [2] 1.81 µM | [3] 1.21 µM | [4] > 50 µM | [5] 1.23 µM | [6] 1.26 µM | [7] 1.15 µM | [9] 1.29 µM | [10] 1.83 µM | [12] 1.5 µM | [13] 1.53 µM | [14] 1.84 µM | [17] 20.9 µM | [18] 2.04 µM | [19] 1.91 µM
active: [8] 0.809 µM | [20] 0.946 µM | [11] 0.964 µM | [15] 0.968 µM

CS(=O)(=O)OCC(CCl)(CCl)CCl
inactive: [1] > 100 µM | [2] > 100 µM | [3] > 100 µM | [4] > 100 µM | [5] > 100 µM | [7] > 100 µM | [8] > 100 µM | [9] > 100 µM | [11] > 100 µM | [12] > 100 µM | [13] > 100 µM | [14] > 100 µM | [16] > 100 µM | [17] > 100 µM | [18] > 100 µM | [19] > 100 µM

CCCCN(CCCC)C1=Nc2ccccc2-n2c(nnc2C(=O)OCC)C1
inactive: [1] 75.3 µM | [2] > 100 µM | [3] 38.8 µM | [4] 38.1 µM | [5] 38.5 µM | [6] 24.6 µM | [7] > 100 µM | [8] 39.2 µM | [9] 61.8 µM | [10] > 100 µM | [20] 26.1 µM | [11] 24.7 µM | [12] 50.9 µM | [13] 44.7 µM | [14] 82.2 µM | [16] 68.4 µM | [17] 51.1 µM | [18] 10.4 µM | [19] 38.7 µM

CN(C)Cc1cc(/C=C/C(=O)c2ccc(Cl)c(Cl)c2)cc(CN(C)C)c1O
inactive: [1] 13.9 µM | [4] 7.05 µM | [5] 5.32 µM | [6] 9.59 µM | [8] 19 µM | [10] 12.5 µM | [20] 13.4 µM | [11] 11 µM | [12] 10.8 µM | [13] 20.2 µM | [14] 12.5 µM | [15] 14 µM | [16] 21.8 µM | [17] 13.5 µM | [18] 11 µM | [19] 12.4 µM

Cc1c2ccccc2nc2[nH]c3ccncc3c12
inactive: [1] 34.5 µM | [2] 50.7 µM | [3] 20.6 µM | [4] 78.5 µM | [5] 33 µM | [6] 31 µM | [7] 36.1 µM | [8] 23.9 µM | [9] 45.6 µM | [10] 35.3 µM | [20] 21 µM | [12] 11.1 µM | [13] 31.6 µM | [14] 70.6 µM | [15] 40.7 µM | [16] 50 µM | [17] 13.1 µM | [18] 33.7 µM | [19] 19.3 µM

COC(=O)C1(NC(=O)C(CC(=O)OCc2ccccc2)NC(=O)OCc2ccccc2)CCCCCCC1 (stereo not given)
inactive: [1] > 100 µM | [2] 45.6 µM | [3] 28.2 µM | [4] 56.4 µM | [5] 29.9 µM | [7] 13 µM | [8] 19.3 µM | [9] 29.8 µM | [10] 62.7 µM | [20] 5.56 µM | [11] 15.4 µM | [12] 44.7 µM | [13] 31.6 µM | [14] 8.69 µM | [16] 40 µM | [17] 36.6 µM | [18] 17.6 µM | [19] 47.4 µM

CCCNC1=Nc2ccccc2N(Cc2ccccc2)CC1
inactive: [1] 33.9 µM | [2] 14.9 µM | [4] 20.3 µM | [5] 19.1 µM | [6] 10.3 µM | [7] 13.9 µM | [8] 16.1 µM | [9] 35 µM | [10] 40.2 µM | [20] 12.9 µM | [11] 11.6 µM | [12] 15.7 µM | [13] 24.9 µM | [14] 13.3 µM | [15] 17 µM | [16] 28.2 µM | [17] 31.5 µM | [19] 27.8 µM
